Data taken from patent publication US7745152B2, “Method for determining genotoxicity” (priority 2004, dated 2010).
Counter-ions that a name gives are not always drawn. Like-named read-outs stand apart in the source and are kept apart here. *1 amine or outer side, *2 acyl side, *3 side chain or, on linkers, in order; H or OH if unused. Where a SMILES comes first, the peptide text is derived from it. Bridges are numbered along the chain shown (N, C = ends). Roman numbers before positions name the chains, in order. [ ]: non-standard residue; d: D form. Actinocin(9to1) = Cc1c2oc3c(C)ccc(C(=O)[*:1])c3nc-2c(C(=O)[*:2])c(N)c1=O; NMeV = CN[C@H](C(=O)O)C(C)C; Sar = CNCC(=O)O

Experiments:
[1] = test system: C2C12 cells
[2] = test system: DDA3; conditions: cited from earlier work
[3] = test system: 4833427G06Rik mRNA; test: RT-PCR assay of 4833427G06Rik (Dog1) mRNA in C2C12 cells; format: cell-based, mouse; conditions: C2C12, 24 hour drug, 18 hour differentiation; relative to vehicle
[4] = test system: Dda3 mRNA; test: RT-PCR assay of Dda3 mRNA in C2C12 cells; format: cell-based, mouse; conditions: C2C12, 24 hour drug, 18 hour differentiation; relative to vehicle
[5] = test system: C2C12 cells; test: Genomic assay: gene expression analysis (Affymetrix Murine Genome MOE430) in C2C12 cells induced to differentiate
Procedure: Three independent replicates were generated for each drug and time point. Sample processing was carried out according to protocols described in the Affymetrix Expression Analysis Technical Manual. Briefly, total RNA was isolated from cells by the acid guanidinium thiocyanate-phenol-chloroform extraction method (Trizol®, Invitrogen, Carlsbad, Calif.). Twice purified poly(A+) RNA was isolated and reverse transcribed using a T7-promoter coupled oligo(dT) primer, followed by in vitro transcription. The labeled samples were applied to the Affymetrix Murine Genome MOE430 set and were hybridized overnight at 45° C./60 rpm, washed using a FS450 Fluidics station, and scanned on a GS3000 scanner. The resulting image files were analyzed using Affymetrix software (Microarray Analysis Suite version 5.0).
To measure the effect of drug treatment on cellular gene expression, replicate data obtained from each drug and time point were compared with replicates for vehicle-matched controls using the Student t-test. The gene expression levels were Log transformed before applying the Student t-test. The fold change of the average expression level between the control and drug-treated cells was also calculated. […] A gene was considered expressed if the Affymetrix software determined that the gene was “present” in two out of the three replicates. This ensured that true expression changes were identified, and could be distinguished from background variability. Second, the calculated expression change for each of five tested drugs was at least 2 fold, and the calculated p-value for the expression change using the Student t-test was less than 0.01.

[6] = C2C12, 24 h drug (μg/ml: BLEO 0.5, CIS 0.6, ETOP 0.5, MMS 0.008, MNNG 4, VINC 0.6), then 6, 18 or 24 h differentiation, vs DMSO

## N.N.[Cl][Pt][Cl] [Cisplatin]
[1]
  Lowest effective dose: 0.15 µg/mL
  extreme block of differentiation: cell death in differentiation media: the cells begin to die after 3 days in differentiation media

## COc1cccc2c1C(=O)c1c(O)c3c(c(O)c1C2=O)C[C@@](O)(C(=O)CO)C[C@@H]3O[C@H]1C[C@H](N)[C@H](O)[C@H](C)O1 [adriamycin]
[2]
  DDA3 expression in NIH3T3 cells exposed to DNA damaging agents: upregulated

## CC[C@]1(O)C[C@@H]2CN(CCc3c([nH]c4ccccc34)[C@@](C(=O)OC)(c3cc4c(cc3OC)N(C)[C@H]3[C@@](O)(C(=O)OC)[C@H](OC(C)=O)[C@]5(CC)C=CCN6CC[C@]43[C@@H]65)C2)C1 [Vinblastine sulfate]
[3]
  relative expression of 4833427G06Rik mRNA: much larger increase in expression of these indicator genes than did vincristine
[1]; mouse, 24 h
  Lowest effective dose: 0.0006 µg/mL
[4]
  relative expression of Dda3 mRNA: much larger increase in expression of these indicator genes than did vincristine

## O=c1[nH]cc(F)c(=O)[nH]1 [5-fluorouracil]
[1]; mouse, 24 h
  Lowest effective dose: 0.0008 µg/mL

## CC(=O)O[C@H]1C(=O)[C@@]2(C)[C@H]([C@H](OC(=O)c3ccccc3)[C@]3(O)C[C@H](OC(=O)[C@H](O)[C@@H](NC(=O)c4ccccc4)c4ccccc4)C(C)=C1C3(C)C)[C@]1(OC(C)=O)CO[C@@H]1C[C@@H]2O [Paclitaxel]
[1]; mouse, 24 h
  Lowest effective dose: 0.002 µg/mL

## CCOS(C)(=O)=O [Methanesulfonate ethyl ester (EMS), Methanesulfonate ethyl ester]
[1]; mouse, 24 h
  Lowest effective dose: 100 µg/mL

## CC[C@]1(O)C[C@H]2CN(CCc3c([nH]c4ccccc34)[C@@](C(=O)OC)(c3cc4c(cc3OC)N(C=O)[C@H]3[C@@](O)(C(=O)OC)[C@H](OC(C)=O)[C@]5(CC)C=CCN6CC[C@]43[C@@H]65)C2)C1 [Vincristine sulfate]
[1]; mouse, 24 h
  Lowest effective dose: 0.002 µg/mL
[5]; [6]
  Fold change in expression: 0610013D04 Rik, RIKEN cDNA: 2.00 fold
  Fold change in expression: 1600013K19 Rik, RIKEN cDNA: 0.98 fold
  Fold change in expression: 2610005B21 Rik, RIKEN cDNA: 0.81 fold
  Fold change in expression: 2610019I03 RIK, RIKEN cDNA: 0.76 fold
  Fold change in expression: 2610509G12 Rik, RIKEN cDNA: 0.55 fold
  Fold change in expression: 2810417H13 Rik, RIKEN cDNA: 0.96 fold
  Fold change in expression: 4833427G06 Rik, RIKEN cDNA: 0.98 fold
  Fold change in expression: 6530401L14 Rik, RIKEN cDNA: 0.53 fold
  Fold change in expression: 9030617O03 Rik, RIKEN cDNA: 1.20 fold
  Fold change in expression: Anxa8, Annexin A8: 1.80 fold
  Fold change in expression: Asflb, ASF1 anti-silencing function 1 homolog B (Saccharomyces): 0.71 fold
  Fold change in expression: Birc5, Baculoviral IAP repeat-containing 5: 0.87 fold
  Fold change in expression: Brca1, Breast cancer 1: 0.51 fold
  Fold change in expression: Calmbp1, Calmodulin binding protein 1: 0.40 fold
  Fold change in expression: Capn6, Calpain 6: 0.83 fold
  Fold change in expression: Ccna2, Cyclin A2: 0.82 fold
  Fold change in expression: Ccng1, Cyclin G1: 1.80 fold
  Fold change in expression: Cilp, Cartilage intermediate layer pro: 0.77 fold
  Fold change in expression: Cks2, CDC28 protein kinase regulatory subunit 2: 0.78 fold
  Fold change in expression: D4Ertd421e, DNA segment, Chr 4, ERATO Doi 421, expressed: 0.64 fold
  Fold change in expression: Dda3-pending, Differential display and activated by p53: 2.00 fold
  Fold change in expression: E2f7, E2F transcription factor 7: 0.63 fold
  Fold change in expression: E030024M05 Rik, RIKEN cDNA: 1.20 fold
  Fold change in expression: E130315B21 Rik, RIKEN cDNA: 0.70 fold
  Fold change in expression: Ephx1, Epoxide hydrolase 1 (microsomal xenobiotic hydrolase): 1.10 fold
  Fold change in expression: Fbxo5, f-box only protein 31: 0.54 fold
  Fold change in expression: Foxm1, Forkhead box M1: 0.68 fold
  Fold change in expression: Gmnn, Geminin: 0.65 fold
  Fold change in expression: Gnpi, Glucosamine-6-phosphate deaminase: 1.60 fold
  Fold change in expression: Hgf, Hepatocyte growth factor (scatter factor): 2.00 fold
  Fold change in expression: Hmgb2, High mobility group box 2: 0.57 fold
  Fold change in expression: Hmgb3, High mobility group box 3: 0.67 fold
  Fold change in expression: Hmmr, Hyaluronan mediated motility receptor (RHAMM): 0.52 fold
  Fold change in expression: Kifl1, Kinesin 11: 0.46 fold
  Fold change in expression: Lek1, Leucine, glutamic acid, lysine family 1 protein: 0.45 fold
  Fold change in expression: Ly6e, Lymphocyte antigen 6 complex, locus E: 1.30 fold
  Fold change in expression: M-phosph1, M-phase phosphoprotein: 0.37 fold
  Fold change in expression: MGC:32192, Mus musculus cDNA clone MGC: 32192 IMAGE: 5006129: 0.71 fold
  Fold change in expression: Mad2l1, MAD2 (mitotic arrest deficient, homolog)-like 1 (yeast): 0.64 fold
  Fold change in expression: Mad3, Max dimerization protein 3: 0.89 fold
  Fold change in expression: Mcm3, Minichromosome maintenance deficient 3 (Saccharomyces): 0.69 fold
  Fold change in expression: Mcmd4, Minichromosome maintenance deficient 4 homolog: 0.64 fold
  Fold change in expression: Mki67, Antigen identified by MAb Ki67: 0.43 fold
  Fold change in expression: Mmhead, Mus musculus 15 day embryo head cDNA clone: 0.95 fold
  Fold change in expression: Nos3, Nitric oxide synthase 3, endothelial cell: 1.30 fold
  Fold change in expression: Np95, Nuclear protein 95: 0.71 fold
  Fold change in expression: Nusap1, Nucleolar and spindle associated protein 1: 0.56 fold
  Fold change in expression: Osbp16, Oxysterol binding protein-like 6: 1.10 fold
  Fold change in expression: Pbk, PDZ binding kinase: 0.62 fold
  Fold change in expression: Pcna, Proliferating cell nuclear antigen: 0.70 fold
  Fold change in expression: Phex, Phosphate regulating neutral endopeptidase (X chromosome): 0.67 fold
  Fold change in expression: Plf, Proliferin: 1.10 fold
  Fold change in expression: Pola1, DNA polymerase alpha 1, 180 kDa: 0.51 fold
  Fold change in expression: Prc1, Protein regulator of cytokinesis 1: 0.63 fold
  Fold change in expression: Prelp, Proline arginine-rich end leucine-rich repeat: 0.58 fold
  Fold change in expression: Prim1, DNA primase, p49 subunit: 0.54 fold
  Fold change in expression: Rad51ap1, RAD51-associated protein 1: 0.59 fold
  Fold change in expression: Rbl1, Retinoblastoma-like 1 (p107): 0.67 fold
  Fold change in expression: Serpine1, Ser (or Cys) proteinase inhibitor, clade E, member 1: 1.00 fold
  Fold change in expression: Sesn2, Sestrin 2: 2.38 fold
  Fold change in expression: Shcbp1, Shc SH2-domain binding protein 1: 0.52 fold
  Fold change in expression: Slc35a5, Solute carrier family 35, member A5: 1.30 fold
  Fold change in expression: Smc2l1, SMC2 structural maintenance of chromosomes 2-like 1: 0.75 fold
  Fold change in expression: Stk18, Serine/threonine kinase 18: 0.63 fold
  Fold change in expression: Tacc3, Transforming, acidic coiled-coil containing protein 3: 0.73 fold
  Fold change in expression: Tagln, Transgelin (smooth muscle 22 protein): 0.84 fold
  Fold change in expression: Tk1, Thymidine kinase 1: 0.62 fold
  Fold change in expression: Top2a, Topoisomerase (DNA) II alpha: 0.52 fold
  Fold change in expression: Trp53inp1, Transformation related protein, 53 inducible nuclear protein 1: 1.60 fold
  Fold change in expression: Usp30, Ubiquitin specific protease 30: 2.00 fold
  Fold change in expression: Wig1, Wild-type p53-induced gene 1: 1.20 fold
[5]; C2C12, vincristine sulfate 0.6 μg/ml 24 h, relative to the five other drugs tested
  pattern of gene expression changes: induced a distinct pattern of gene expression changes relative to the five other drugs tested
[5]; first Slc19a2 entry (r16), C2C12, 24 h drug (μg/ml: BLEO 0.5, CIS 0.6, ETOP 0.5, MMS 0.008, MNNG 4, VINC 0.6), then 6, 18 or 24 h differentiation, vs DMSO
  Fold change in expression: Slc19a2, Solute carrier family 19 (thiamine transporter), member 2: 1.40 fold
[5]; second Slc19a2 entry (r72), C2C12, 24 h drug (μg/ml: BLEO 0.5, CIS 0.6, ETOP 0.5, MMS 0.008, MNNG 4, VINC 0.6), then 6, 18 or 24 h differentiation, vs DMSO
  Fold change in expression: Slc19a2, Solute carrier family 19 (thiamine transporter), member 2: 1.10 fold

## O=[N+]([O-])c1ccc2c(c1)Cc1ccccc1-2 [2-nitrofluorene]
[1]; mouse
  Lowest effective dose: 5.2 µg/mL

## COc1cccc2c1C(=O)c1c(O)c3c(c(O)c1C2=O)C[C@@](O)(C(=O)CO)C[C@@H]3O[C@H]1C[C@H](N)[C@H](O)[C@H](C)O1 [Doxorubicin HCl]
[1]; mouse, 24 h
  Lowest effective dose: 0.005 µg/mL

## CO[C@@]12[C@H](COC(N)=O)C3=C(C(=O)C(C)=C(N)C3=O)N1C[C@@H]1N[C@@H]12 [Mitomycin C]
[2]
  DDA3 expression in NIH3T3 cells exposed to DNA damaging agents: upregulated

## CC/C(=C(/CC)c1ccc(O)cc1)c1ccc(O)cc1 [Diethylstilbestrol (DES), Diethylstilbestrol]
[1]; mouse, 24 h
  Lowest effective dose: 1.8 µg/mL

## Bleomycin sulfate
[1]
  Lowest effective dose: 1 µg/mL

## Cc1c2oc3c(C)ccc(C(=O)N[C@@H]4C(=O)N[C@H](C(C)C)C(=O)N5CCC[C@H]5C(=O)N(C)CC(=O)N(C)[C@@H](C(C)C)C(=O)O[C@@H]4C)c3nc-2c(C(=O)N[C@@H]2C(=O)N[C@H](C(C)C)C(=O)N3CCC[C@H]3C(=O)N(C)CC(=O)N(C)[C@@H](C(C)C)C(=O)O[C@@H]2C)c(N)c1=O [Actinomycin D] (I: T[dV]P[Sar][NMeV] / II: T[dV]P[Sar][NMeV]; ester I:1-I:C, II:1-II:C; linker I:N-II:N via Actinocin(9to1))
[1]
  Lowest effective dose: 0.00075 µg/mL
